Source: patent publication US20220267801A1, “ELIMINATION OF PROLIFERATING CELLS FROM STEM CELL-DERIVED GRAFTS” (Research Development Foundation, priority 2016, published 2022)
“Also recorded” adds a separate entry of the source.

Assays:
[1] = tested on: TK-PSC (HS415 pluripotent stem cells expressing HSV-TK under Ki67 promoter); assay: Calcein cell viability assay, ganciclovir on TK-PSC; format: cell-based, human
Method: (§1) The impact of ganciclovir on TK cells was determined in vitro (FIG. 2B, 2C, 2D). TK PSCs were highly sensitive to ganciclovir exposure (96 h) and even at ganciclovir concentrations of 2.5 μM loss of cells was observed, which was almost complete at 10 μM (FIG. 2B, 2C). In contrast, regular PSCs (i.e., not transduced with the TK construct) were resistant to ganciclovir even at concentrations of 40 μM (FIG. 2B, 2F). As expected from the lack of TK expression in TK neurons, TK neurons were not affected by ganciclovir concentrations up to 40 μM, similar to the control neurons.
(§2) The time course of the ganciclovir effect was also investigated (FIG. 2D). TK PSCs were killed by Ganciclovir (40 μM) within 4 days. TK-NPCs after 1 week of neurosphere differentiation were still sensitive to Ganciclovir (40 μM), however the time course of killing was markedly slowed down and complete killing was observed only after 8 days.
(§3) Cell proliferation measurement by calcein assay: Cells were plated onto a 96 wells pre-coated with polyornothine+ECM (1/50). Respectively 1000 cells for pluripotent stem cells, 5000 cells for early NPC and 30000 cells for late NPC. Ganciclovir (Cemevene diluted in PBS, Roche) treatment was added the day after cell plating for PSC, 3 days later for early NPC and one week later for late NPC. Calcein (2 μM) was added for different time course of ganciclovir treatment (24 H to 96 H). Cell survival was measured by calcein integration after 24 h of incubation in a 37° C. incubator.

[2] = tested on: regular PSCs (not transduced with the TK construct); assay: Calcein cell viability assay, ganciclovir on control PSC; format: cell-based, human; conditions: concentrations up to 40 μM
Method: as §1, §3

[3] = tested on: TK neurons; assay: Calcein cell viability assay, ganciclovir on TK-neurons; format: cell-based, human; conditions: concentrations up to 40 μM
Method: as §1
(§4) Generation of NPC in two dimensional culture (2D): For differentiation in 2D, 3-week old neurospheres were dissociated with ACCUMAX® (Millipore) and replated on polyornithine- (15 μg/mL; Sigma) and laminin- (2 μg/cm^2; R&D System) coated cover slips (diameter=0.8cm) in 24-well plates at 200,000 cells/cm^2 in maturation medium for 1 week before analysis by immunofluorescence staining (FIG. 1B).
(§5) Cell proliferation measurement by calcein assay: Cells were plated onto a 96 wells pre-coated with polyornothine+ECM (1/50). Respectively 1000 cells for pluripotent stem cells, 5000 cells for early NPC and 30000 cells for late NPC. […] Cell survival was measured by calcein integration after 24 h of incubation in a 37° C. incubator.

[4] = tested on: control neurons; assay: Calcein cell viability assay, ganciclovir on control neurons; format: cell-based, human; conditions: concentrations up to 40 μM
Method: as §1, §4, §5

[5] = tested on: TK-NPCs (neurosphere-derived neural precursor cells); assay: Calcein cell viability assay, ganciclovir time course on TK-NPC; format: cell-based, human; conditions: 40 μM ganciclovir
Method: as §2
Generation of neurospheres containing DA neuropecursors: NPC were generated as neurospheres to contain DA progenitors as described previously (Tieng et al., 2014). Briefly, neural midbrain orientation is performed during the first week followed by 2 additional weeks of maturation to obtain 1 week or 2 or 3 week-old NPC (FIGS. 1B, 3A).
as §3

[6] = tested on: teratoma from transplanted TK-PSC; assay: TK-PSC transplantation into striatum of NOD/SCID mice, ganciclovir treatment, teratoma formation; format: in vivo
Method: (§6) FIGS. 3A-3C: Schedule of cell transplantation and ganciclovir treatment. Different transplantation and ganciclovir treatment protocols were used. (A) Schematic representation of the differentiation protocol towards DA neurons. Pluripotent stem cells were cultured as neurospheres for 1 week for midbrain orientation phase, followed by a 2 or 3 week-maturation phase. (B) Transplantation of undifferentiated pluripotent stem cells with early or late ganciclovir treatment. Early treatment: undifferentiated pluripotent stem cells were transplanted and ganciclovir (or PBS control) was applied by daily intra-peritoneal injection from day 4 to day 19 post-transplantation. Late treatment: undifferentiated pluripotent stem cells were transplanted and ganciclovir (or PBS control) was applied by daily intra-peritoneal injection from day 30 to day 45 post-transplantation. (C) Transplantation of 2 or 3 week NPC: NPC containing- neurospheres were dissociated and transplanted into mice striatum. Ganciclovir (or PBS control) treatment was given from day 4 to day 19 post-transplantation. For all protocols, animals were sacrificed 1 month after termination of ganciclovir treatment.
Early, but not late ganciclovir treatment prevents tumor formation upon transplantation of highly proliferative pluripotent stem cells: Given the encouraging results in vitro, it was investigated whether ganciclovir could prevent tumor formation in vivo. For this purpose TK-PSC were transplanted into the striatum of NOD/SCID mice. […] There was a moderate amount of mouse microglia invasion.
It was next investigated whether ganciclovir could also be used to treat already established teratomas. […] Mice were sacrificed 30 days after the end of the ganciclovir treatment.
Stereotaxic engraftment and ganciclovir treatment: Undifferentiated pluripotent stem cells (20000 cells/ μL) and dissociated neurospheres (100.000 cells/μL) were injected in the striatum of anesthetized mice using a 27-G Hamilton syringe. Injection coordinates for lateral striatum were: bregma=0.74 mm, mediolateral=2.25 mm, dorsoventral=3.5 mm; for medial striatum: bregma=0.74 mm, mediolateral=1.4 mm, dorsoventral=2.8 mm. Mice were euthanized one month later after ganciclovir termination.
Morphological and Phenotypic Analysis of Injected Surviving Cells: Anesthetized mice were fixed by intracardiac perfusion of 4% paraformaldehyde in phosphate-buffered saline. Immunohistochemical detection was performed on 10-μm thick free-floating cryostat sections using Alexa 488®-, or 555-labeled secondary antibodies or the biotin—avidin—peroxidase complex method (Vector). The following primary antibodies were used: Nestin (rabbit polyclonal anti-human, from Chemicon, 1/400), β3-tubulin (mouse monoclonal from Sigma or rabbit polyclonal from Covance, 1/2000), Neuronal Nuclei-specific protein (NeuN, mouse monoclonal from Chemicon, 1/1000), Glial Fibrillary Acidic Protein (GFAP, rabbit polyclonal from Dako, 1/2000), Proliferating Cell Nuclear Antigen (PCNA, mouse monoclonal from Dako, 1/100), Tyrosin Hydroxylase (TH, rabbit polyclonal from millipore, 1/500), iba 1 (polyclonal rabbit from Wako, 1/500), HSV-TK (mouse monoclonal, Gentaur, 1/100), ki67 (monoclonal rabbit, Abcam, 1/100 or mouse, Chemicon, 1/100).

[7] = tested on: transplanted TK-NPC graft; assay: Transplantation of 2-3 week NPC neurospheres into mouse striatum, ganciclovir treatment; format: in vivo, mice
Method: as §6
Transplantation of TK-NPCs produced mature neurons which were not sensitive to ganciclovir treatment: The in vivo results, shown so far, were obtained with transplantation of undifferentiated pluripotent stem cells. However, the final goal of neuronal cell therapy is the transplantation of neural precursor cells, which should differentiate into mature neurons and be resistant to ganciclovir treatment. Therefore, 2-3 weeks-NPC containing neurospheres were transplanted (FIGS. 3C, 8). Under these conditions, no tumor formation was observed, even in the absence of ganciclovir treatment (FIG. 8A). In line with these observations, the transplanted cells (assessed by immunofluorescence 7 weeks after transplantation) were abundantly positive for beta 3 tubulin (FIG. 8B, upper panel), while a smaller fraction of cells was TH-positive (FIG. 8B, lower panel). Occasionally nestin-positive cells were observed.
Markers of cellular proliferation were analyzed by staining of the transplants with antibodies against PCNA and Ki67 (FIG. 8C). […] To verify whether the PCNA-positive, Ki67-negative cells were proliferating cells, BrdU experiments were performed.
Stereotaxic engraftment and ganciclovir treatment: Undifferentiated pluripotent stem cells (20000 cells/ μL) and dissociated neurospheres (100.000 cells/μL) were injected in the striatum of anesthetized mice using a 27-G Hamilton syringe. Injection coordinates for lateral striatum were: bregma=0.74 mm, mediolateral=2.25 mm, dorsoventral=3.5 mm; for medial striatum: bregma=0.74 mm, mediolateral=1.4 mm, dorsoventral=2.8 mm. […]

[8] = early treatment, one month after termination of treatment

Structure (SMILES): Nc1nc(O)c2ncn(COC(CO)CO)c2n1 [ganciclovir]
- time to killing of TK PSCs ([1]; 40 μM ganciclovir): ≤ 4 days
- ganciclovir concentration at which loss of cells was almost complete ([1]; TK PSCs, 96 h exposure): 10 µM
- ganciclovir concentration at which loss of cells was observed ([1]; TK PSCs, 96 h exposure): 2.5 µM
- sensitivity of regular (control) PSCs to ganciclovir [2]: resistant; also recorded: no ganciclovir toxicity is observed
- effect of ganciclovir on TK neurons [3]: not affected; also recorded: lose their sensitivity
- effect of ganciclovir on control neurons [4]: not affected
- time to complete killing of TK-NPCs ([5]; TK-NPCs after 1 week of neurosphere differentiation): 8 days
- killing of TK-NPCs ([5]; TK-NPCs after 2 weeks of neurosphere differentiation): not killed
- tumor development (graft surface) ([6]; early ganciclovir treatment): completely prevented
- Ki67 and TK expression in the graft region [6, 8]: virtually no Ki67 and TK expression
- human cells (HCM) remaining in the graft [6, 8]: hardly any human cells left; also recorded: barely detectable
- teratoma formation ([6]; early treatment: 15 days, starting 4 days post-transplantation, daily i.p.): no observed teratomas; also recorded: absence of teratoma formation
- tumor size (graft surface) ([6]; late ganciclovir treatment): did not have any effect
- teratoma formation ([6]; late treatment: days 30-45 post-transplantation, sacrifice 30 days after end of treatment): teratoma formation; also recorded: no difference
- size of transplants (graft surface) ([7]; NPC from 2-3 weeks old neurospheres, early ganciclovir treatment): not affected
- proliferation marker pattern of transplants (PCNA positive, Ki67 low to absent) ([7]; ganciclovir vs control): did not alter this pattern
- neural markers of transplanted cells (beta 3 tubulin, TH, nestin) ([7]; immunofluorescence 7 weeks after transplantation): None of these markers were affected
- graft development, ganciclovir vs PBS ([7]; sacrifice 4 weeks after termination of treatment): No difference
